Earlier results in patent US20160144033A1, “CONCENTRATED ACETAMINOPHEN SOLUTION” (Emphascience, Inc., priority 2014, published 2016).

Details: room temperature

CC(=O)Nc1ccc(O)cc1 [acetaminophen]
solubility of acetaminophen in water: ca. 13 mg per ml
